From ChEMBL document CHEMBL6134780, “Halogenated retinoid derivatives as dual RARα and RXRα modulators for treating acute promyelocytic leukemia cells” (Eur J Med Chem, 2024)
Active and inactive are the calls of the source. No cut-off for these calls is given here.

What was measured:
NB-4 [1] = experiment: Cell cycle arrest in human NB4 cells assessed as accumulation of cells at G0/G1 phase at 1 uM incubated for 12 hrs by DAPI staining based flow cytometric analysis (reference value: 51 %); type: functional
[2] = Cell cycle arrest in human ATRA-resistant NB4-LR2 cells assessed as accumulation of cells at G0/G1 phase at 1 uM incubated for 12 hrs by DAPI staining based flow cytometric analysis (reference value: 42 %); type: functional
NB-4 [3] = experiment: Induction of cell differentiation in human NB4 cells assessed as NBT positive cells at 0.5 uM incubated for 6 days by Nitro Blue tetrazolium chloride based microscopic analysis (reference value: 0 %); type: functional; conditions: time 6 day
[4] = Cell cycle arrest in human ATRA-resistant NB4-LR2 cells assessed as accumulation of cells at S phase at 1 uM incubated for 12 hrs by DAPI staining based flow cytometric analysis (reference value: 12 %); type: functional
NB-4 [5] = experiment: Induction of apoptosis in human NB4 cells assessed as late apoptotic cells at 1 uM incubated for 24 hrs by Annexin V-FITC/PI staining based flow cytometric analysis (reference value: 2.23 %); type: functional
[6] = Cell cycle arrest in human ATRA-resistant NB4-LR2 cells assessed as accumulation of cells at sub-G1 phase at 1 uM incubated for 12 hrs by DAPI staining based flow cytometric analysis (reference value: 18 %); type: functional
[7] = target: T1, Retinoic acid receptor alpha (Homo sapiens) (UniProt P10276); experiment: Agonist activity at full length RARalpha LBD (unknown origin) transfected in HEK293T cells co-transfected with pG5luc reporter and Renilla-luc assessed as transactivation at 0.5 to 1 uM incubated for 12 hrs by luciferase reporter gene assay; type: cell-based; conditions: filed as agonist, dose 0.5-1 µM
T1 sequence (whole entry): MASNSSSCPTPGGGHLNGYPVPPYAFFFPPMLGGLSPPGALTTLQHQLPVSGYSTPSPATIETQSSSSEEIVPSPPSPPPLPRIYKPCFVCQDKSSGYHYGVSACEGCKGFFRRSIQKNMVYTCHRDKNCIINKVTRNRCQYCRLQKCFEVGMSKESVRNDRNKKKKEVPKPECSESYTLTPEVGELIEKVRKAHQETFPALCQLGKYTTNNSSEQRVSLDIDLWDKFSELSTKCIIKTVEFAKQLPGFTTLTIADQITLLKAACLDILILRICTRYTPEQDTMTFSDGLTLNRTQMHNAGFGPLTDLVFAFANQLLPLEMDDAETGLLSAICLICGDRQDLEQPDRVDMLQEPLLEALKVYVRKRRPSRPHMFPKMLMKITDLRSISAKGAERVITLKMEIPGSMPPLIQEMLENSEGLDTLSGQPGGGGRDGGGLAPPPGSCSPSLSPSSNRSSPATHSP

[8] = Cell cycle arrest in human ATRA-resistant NB4-LR2 cells assessed as accumulation of cells at G2/M phase at 1 uM incubated for 12 hrs by DAPI staining based flow cytometric analysis (reference value: 28 %); type: functional
NB-4 [9] = experiment: Induction of apoptosis in human NB4 cells assessed as early apoptotic cells at 1 uM incubated for 24 hrs by Annexin V-FITC/PI staining based flow cytometric analysis (reference value: 1.77 %); type: functional
[10] = Induction of apoptosis in human ATRA-resistant NB4-LR2 cells assessed as early apoptotic cells at 1 uM incubated for 24 hrs by Annexin V-FITC/PI staining based flow cytometric analysis (reference value: 1.41 %); type: functional
NB-4 [11] = experiment: Antiproliferative activity against human NB4 cells assessed as inhibition of cell viability at 0.125 uM incubated for 3 days by CCK8 assay relative to control; type: functional; conditions: NB-4, 72 h, time 3 day
NB-4 [12] = experiment: Cell cycle arrest in human NB4 cells assessed as accumulation of cells at S phase at 1 uM incubated for 12 hrs by DAPI staining based flow cytometric analysis (reference value: 20 %); type: functional
NB-4 [13] = experiment: Cell cycle arrest in human NB4 cells assessed as accumulation of cells at G2/M phase at 1 uM incubated for 12 hrs by DAPI staining based flow cytometric analysis (reference value: 26 %); type: functional
NB-4 [14] = experiment: Cell cycle arrest in human NB4 cells assessed as accumulation of cells at sub-G1 phase at 1 uM incubated for 12 hrs by DAPI staining based flow cytometric analysis (reference value: 2 %); type: functional
[15] = Induction of apoptosis in human ATRA-resistant NB4-LR2 cells assessed as late apoptotic cells at 1 uM incubated for 24 hrs by Annexin V-FITC/PI staining based flow cytometric analysis (reference value: 5.62 %); type: functional
[16] = Induction of apoptosis in human ATRA-resistant NB4-LR2 cells assessed as viable cells at 1 uM incubated for 24 hrs by Annexin V-FITC/PI staining based flow cytometric analysis (reference value: 87.30 %); type: functional; conditions: read-out: Activity
K562 [17] = experiment: Induction of apoptosis in human K562 cells assessed as viable cells at 2 uM incubated for 24 hrs by Annexin V-FITC/PI staining based flow cytometric analysis (reference value: 90.02 %); type: functional; conditions: read-out: Activity
NB-4 [18] = experiment: Cell cycle arrest in human NB4 cells assessed as accumulation of cells at G0/G1 phase at 0.5 uM incubated for 6 days for DAPI staining based flow cytometric analysis (reference value: 52 %); type: functional; conditions: time 6 day
NB-4 [19] = experiment: Antiproliferative activity against human NB4 cells assessed as inhibition of cell viability at 0.1 uM incubated for 3 days by CCK8 assay relative to control; type: functional; conditions: NB-4, 72 h, time 3 day
NB-4 [20] = experiment: Induction of apoptosis in human NB4 cells assessed as necrotic cells at 1 uM incubated for 24 hrs by Annexin V-FITC/PI staining based flow cytometric analysis (reference value: 0.07 %); type: functional
NB-4 [21] = experiment: Cell cycle arrest in human NB4 cells assessed as accumulation of cells at sub-G1 phase at 0.5 uM incubated for 6 days for DAPI staining based flow cytometric analysis (reference value: 6 %); type: functional; conditions: time 6 day
NB-4 [22] = experiment: Induction of cell differentiation in human NB4 cells at 0.5 uM incubated for 4 to 6 days by CD11b staining based flow cytometric analysis; type: functional; conditions: time 4-6 day
HEK293T = experiment: Agonist activity at full length RARalpha LBD R276E mutant (unknown origin) transfected in HEK293T cells co-transfected with pG5luc reporter and Renilla-luc at 1 uM incubated for 12 hrs by luciferase reporter gene assay; type: cell-based; conditions: Homo sapiens, filed as agonist
NB-4 [23] = experiment: Cell cycle arrest in human NB4 cells assessed as accumulation of cells at S phase at 0.5 uM incubated for 6 days for DAPI staining based flow cytometric analysis (reference value: 27 %); type: functional; conditions: time 6 day
K562 [24] = experiment: Effect on cell cycle population in human K562 cells at 0.5 uM by DAPI staining based flow cytometric analysis; type: functional
K562 [25] = experiment: Induction of apoptosis in human K562 cells assessed as early apoptotic cells at 2 uM incubated for 24 hrs by Annexin V-FITC/PI staining based flow cytometric analysis (reference value: 0.91 %); type: functional
[26] = Induction of apoptosis in human ATRA-resistant NB4-LR2 cells assessed as early apoptotic cells at 1 uM incubated for 24 hrs by Annexin V-FITC/PI staining based flow cytometric analysis (reference value: 5.38 %); type: functional
[27] = Induction of apoptosis in human ATRA-resistant NB4-LR2 cells assessed as necrotic cells at 1 uM incubated for 24 hrs by Annexin V-FITC/PI staining based flow cytometric analysis (reference value: 0.08 %); type: functional
NB-4 [28] = experiment: Induction of apoptosis in human NB4 cells assessed as viable cells at 1 uM incubated for 24 hrs by Annexin V-FITC/PI staining based flow cytometric analysis (reference value: 92.36 %); type: functional; conditions: read-out: Activity
K562 [29] = experiment: Induction of apoptosis in human K562 cells assessed as necrotic cells at 2 uM incubated for 24 hrs by Annexin V-FITC/PI staining based flow cytometric analysis (reference value: 2.19 %); type: functional
[30] = target: T2, Retinoic acid receptor gamma (Homo sapiens) (UniProt P13631); experiment: Agonist activity at Gal4-fused full length human RARgamma LBD transfected in HEK293T cells co-transfected with pG5luc reporter and Renilla-luc assessed as transactivation by measuring maximal efficacy incubated for 12 hrs by dual luciferase reporter gene assay relative to control; type: cell-based; conditions: filed as agonist
T2 sequence (whole entry): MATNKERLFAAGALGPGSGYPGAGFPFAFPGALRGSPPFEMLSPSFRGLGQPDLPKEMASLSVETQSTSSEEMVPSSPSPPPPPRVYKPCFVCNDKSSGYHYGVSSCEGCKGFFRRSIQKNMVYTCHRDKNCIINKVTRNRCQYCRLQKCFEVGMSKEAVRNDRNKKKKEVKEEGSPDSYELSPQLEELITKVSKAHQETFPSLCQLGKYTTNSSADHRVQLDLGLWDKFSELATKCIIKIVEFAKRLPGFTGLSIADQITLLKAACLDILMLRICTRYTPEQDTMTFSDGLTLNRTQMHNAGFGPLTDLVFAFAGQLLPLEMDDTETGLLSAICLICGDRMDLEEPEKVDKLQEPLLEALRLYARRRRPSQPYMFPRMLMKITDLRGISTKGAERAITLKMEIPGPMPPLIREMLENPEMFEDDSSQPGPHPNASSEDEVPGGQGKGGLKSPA

NB-4 [31] = experiment: Induction of apoptosis in human NB4 cells assessed as late apoptotic cells at 1 uM incubated for 24 hrs by Annexin V-FITC/PI staining based flow cytometric analysis (reference value: 3.20 %); type: functional
NB-4 [32] = experiment: Cell cycle arrest in human NB4 cells assessed as accumulation of cells at G2/M phase at 0.5 uM incubated for 6 days for DAPI staining based flow cytometric analysis (reference value: 15 %); type: functional; conditions: time 6 day
Jurkat = experiment: Induction of cell differentiation in human Jurkat cells at 0.5 uM incubated for 6 days by CD11b staining based flow cytometric analysis; type: functional; conditions: time 6.0 day
Homo sapiens = organism: Homo sapiens; experiment: Binding affinity to N-terminal His-tagged human RARalpha LBD R276E mutant extracted from Escherichia coli BL21 (DE3) cells by ITC analysis
NB-4 [33] = experiment: Induction of cell death in M phase synchronized human NB4 cells assessed as reduction in mitotic cells at 0.5 uM preincubated for 4 days followed by release from thymidine block for 10 hrs by immunofluorescence staining based analysis; type: functional; conditions: time 106.0 hrs
ATRA-resistant NB4-LR2 = experiment: Antiproliferative activity against human ATRA-resistant NB4-LR2 cells assessed as effect on cell viability up to 2 uM incubated for 3 days by CCK8 assay; type: functional, cell-based; conditions: time 3.0 day
K562 [34] = experiment: Induction of apoptosis in human K562 cells assessed as late apoptotic cells at 2 uM incubated for 24 hrs by Annexin V-FITC/PI staining based flow cytometric analysis (reference value: 5.98 %); type: functional
K562 [35] = experiment: Induction of cell differentiation in human K562 cells at 0.5 uM incubated for 6 days by CD11b staining based flow cytometric analysis; type: functional; conditions: time 6.0 day
[36] = Induction of apoptosis in human ATRA-resistant NB4-LR2 cells assessed as late apoptotic cells at 1 uM incubated for 24 hrs by Annexin V-FITC/PI staining based flow cytometric analysis (reference value: 7.23 %); type: functional
NB-4 [37] = experiment: Induction of apoptosis in human NB4 cells assessed as early apoptotic cells at 1 uM incubated for 24 hrs by Annexin V-FITC/PI staining based flow cytometric analysis (reference value: 4.37 %); type: functional

Cc1cc2c(cc1C(=O)/C(I)=C/c1ccc(C(=O)O)cc1)C(C)(C)CCC2(C)C
Activity (NB-4 [1]): 63%
Activity [2]: 41%
Activity (NB-4 [3]): 78%
Activity [4]: 9%
Activity (NB-4 [5]): 4.24%
Activity [6]: 20%
Activity [7]: Active; Highly Raralpha Selective Agonistic Activity Observed
Activity [8]: 30%
Activity (NB-4 [9]): 0.58%
Activity [10]: 1.1%
inhibition at 0.125 µM (NB-4 [11]): ~40%
Activity (NB-4 [12]): 11%
Activity (NB-4 [13]): 24%
Activity (NB-4 [14]): 2%
Activity [15]: 6.66%

CC1=C(/C=C/C(C)=C/C=C/C(C)=C/C(=O)O)C(C)(C)CCC1 [TRETINOIN]
viability at 1 µM [16]: 88.6%
viability at 2 µM (K562 [17]): 89.5%
Activity (NB-4 [1]): 65%
Activity [2]: 43%
Activity (NB-4 [3]): 33%
Activity (NB-4 [18]): 64%
inhibition at 0.1 µM (NB-4 [19]): ~40%
Activity (NB-4 [20]): 0.13%
Activity (NB-4 [21]): 3%
Activity (NB-4 [22]): Active
Activity (HEK293T): Active; Partial Impairment Observed
Activity (NB-4 [23]): 17%
Activity (K562 [24]): inactive
Activity [4]: 11%
Activity (K562 [25]): 1.04%
Activity [26]: 3.39%
Activity [27]: 0.08%
Activity [6]: 19%
viability at 1 µM (NB-4 [28]): 90.4%
Activity [8]: 27%
Activity (K562 [29]): 2.01%
Emax [30]: 100%
Activity (NB-4 [31]): 6.37%
Activity (NB-4 [32]): 16%
Activity (Jurkat): inactive
Activity (NB-4 [12]): 10%
Activity (NB-4 [13]): 23%
Activity (Homo sapiens): inactive
Activity (NB-4 [14]): 2%
Activity (NB-4 [33]): Active
Activity (ATRA-resistant NB4-LR2): inactive
Activity (K562 [34]): 6.84%
Activity (K562 [35]): inactive
Activity [36]: 7.92%
Activity (NB-4 [37]): 3.11%
